Experimental data as given in PubChem BioAssay AID330 (DTP/NCI, 2004).
Where “and” joins values, the source holds several entries; their conditions need not be identical. Identical values can stand only once. Toxic doses and inconclusive results are not listed. The calls were made as follows: active = survival T/C of 150% or more; inactive = T/C below 125% in these data.

System: P388 leukemia ip, CD2F1 mice, survival T/C
Assay: NCI In Vivo Anticancer Drug Screen. Data for tumor model P388 Leukemia (intraperitoneal) in CD2F1 (CDF1) mice
Details: endpoint: median survival time, higher = longer survival
Outline: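 Mice carrying the transplanted tumor received test compound or vehicle. Survival was recorded in each group, and the value is the treated-group measurement divided by that of the vehicle-treated control group.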

[1] = dose: 60.0 mg/kg/injection, schedule: Q01DX005 (ip), vehicle: Klucel (hydroxypropylcellulose) (HPC)
[2] = dose: 120.0 mg/kg/injection, schedule: Q01DX005 (ip), vehicle: Klucel (hydroxypropylcellulose) (HPC)
[3] = dose: 6.25 mg/kg/injection, schedule: Q01DX005 (ip), vehicle: saline with Tween-80
[4] = dose: 12.5 mg/kg/injection, schedule: Q01DX005 (ip), vehicle: saline with Tween-80
[5] = dose: 50.0 mg/kg/injection, schedule: Q01DX005 (ip), vehicle: saline with Tween-80
[6] = dose: 100.0 mg/kg/injection, schedule: Q01DX005 (ip), vehicle: saline with Tween-80
[7] = dose: 200.0 mg/kg/injection, schedule: Q01DX005 (ip), vehicle: saline with Tween-80
[8] = dose: 25.0 mg/kg/injection, schedule: Q01DX005 (ip), vehicle: Klucel (hydroxypropylcellulose) (HPC)
[9] = dose: 50.0 mg/kg/injection, schedule: Q01DX005 (ip), vehicle: Klucel (hydroxypropylcellulose) (HPC)

Measured: T/C

Cc1c(N=Nc2c(S(=O)(=O)O)cc3cc(S(=O)(=O)O)c(N=Nc4c(C)n(C)n(-c5ccccc5)c4=O)c(O)c3c2O)c(=O)n(-c2ccccc2)n1C
inactive: dose: 60.0 mg/kg/injection, schedule: Q01DX005 (ip), vehicle: suspension in saline 101 % of control | dose: 120.0 mg/kg/injection, schedule: Q01DX005 (ip), vehicle: suspension in saline 96 % of control | dose: 240.0 mg/kg/injection, schedule: Q01DX005 (ip), vehicle: suspension in saline 110 % of control

COC(=O)C(Cc1c[nH]c2ccccc12)N1CN(C)c2ccccc2C1=O (stereo not drawn)
inactive: [1] 98 % of control | [2] 98 % of control | dose: 240.0 mg/kg/injection, schedule: Q01DX005 (ip), vehicle: Klucel (hydroxypropylcellulose) (HPC) 90 % of control

CC(C)c1oc(=O)cc2c1C(O)C1OC(=O)C3(C)C(O)C4OC4C2(C)C13 (stereo not drawn)
inactive: dose: 15.0 mg/kg/injection, schedule: Q01DX005 (ip), vehicle: Klucel (hydroxypropylcellulose) (HPC) 103 % of control and 105 % of control | dose: 30.0 mg/kg/injection, schedule: Q01DX005 (ip), vehicle: Klucel (hydroxypropylcellulose) (HPC) 103 % of control and 107 % of control | [1] 120 % of control | [2] 111 % of control

O=C(NN1C(=O)CS(=O)(=O)C1c1ccccc1F)c1ccncc1 (stereo not drawn)
inactive: [3] 102 % of control | [4] 98 % of control | dose: 25.0 mg/kg/injection, schedule: Q01DX005 (ip), vehicle: saline with Tween-80 99 % of control | [5] 97 % of control | [6] 90 % of control | [7] 97 % of control

CC1OC(O[C@H]2CC[C@]3(C=O)[C@H]4CC[C@]5(C)[C@@H](C6=COC(=O)C6)CC[C@]5(O)[C@@H]4CC[C@]3(O)C2)C(O)C(O)C1OC1OC(CO)C(O)C(O)C1O (stereo partly drawn)
inactive: [8] 101 % of control | [9] 98 % of control

NNC(=O)C(=O)Nc1nccs1
inactive: dose: 60.0 mg/kg/injection, schedule: Q01DX005 (ip), vehicle: saline with Tween-80 94 % of control | dose: 120.0 mg/kg/injection, schedule: Q01DX005 (ip), vehicle: saline with Tween-80 95 % of control

O=C(O)C1C(C(=O)O)C2C(=O)C=CC1N2Cc1ccccc1 (stereo not drawn)
inactive: dose: 12.5 mg/kg/injection, schedule: Q01DX005 (ip), vehicle: Klucel (hydroxypropylcellulose) (HPC) 105 % of control | [8] 99 % of control and 116 % of control | [9] 112 % of control and 114 % of control and 115 % of control | dose: 100.0 mg/kg/injection, schedule: Q01DX005 (ip), vehicle: Klucel (hydroxypropylcellulose) (HPC) 103 % of control and 118 % of control and 122 % of control

COC(=O)CC(OC1CC(N)C(O)C(C)O1)c1c(O)c2c(c(O)c1CO)C(=O)c1cccc(OC)c1C2=O (stereo not drawn)
inactive: dose: 100.0 mg/kg/injection, schedule: Q04DX003 (ip), vehicle: water 105 % of control | dose: 200.0 mg/kg/injection, schedule: Q04DX003 (ip), vehicle: water 121 % of control

CN(C)[C](=[Au][Cl])c1ccccc1
inactive: dose: 25.0 mg/kg/injection, schedule: Q04DX002 (ip), vehicle: Klucel (hydroxypropylcellulose) (HPC) 109 % of control | dose: 50.0 mg/kg/injection, schedule: Q04DX002 (ip), vehicle: Klucel (hydroxypropylcellulose) (HPC) 111 % of control | dose: 100.0 mg/kg/injection, schedule: Q04DX002 (ip), vehicle: Klucel (hydroxypropylcellulose) (HPC) 108 % of control and 96 % of control

CN(C)C(=O)C1OC1(C)c1ccccc1 (stereo not drawn)
inactive: dose: 100.0 mg/kg/injection, schedule: Q04DX003 (ip), vehicle: Klucel (hydroxypropylcellulose) (HPC) 103 % of control | dose: 200.0 mg/kg/injection, schedule: Q04DX003 (ip), vehicle: Klucel (hydroxypropylcellulose) (HPC) 108 % of control | dose: 400.0 mg/kg/injection, schedule: Q04DX003 (ip), vehicle: Klucel (hydroxypropylcellulose) (HPC) 117 % of control

C#CC(OS(=O)(=O)C(F)(F)F)=C1C2CC3CC(C2)CC1C3
inactive: [5] 100 % of control | [6] 98 % of control | [7] 100 % of control

NC(=O)c1cc(Br)ccc1[N+](=O)[O-]
inactive: dose: 50.0 mg/kg/injection, schedule: Q01DX009 (ip), vehicle: saline 97 % of control | dose: 100.0 mg/kg/injection, schedule: Q01DX009 (ip), vehicle: saline 97 % of control | dose: 200.0 mg/kg/injection, schedule: Q01DX009 (ip), vehicle: saline 87 % of control

CCCCCCCCCCN1CCOCCOCCN(CCCCCCCCCC)CCOCCOCC1
inactive: dose: 1.56 mg/kg/injection, schedule: Q01DX005 (ip), vehicle: saline with Tween-80 105 % of control | dose: 3.13 mg/kg/injection, schedule: Q01DX005 (ip), vehicle: saline with Tween-80 100 % of control | [3] 107 % of control | [4] 99 % of control

C[n+]1c(-c2ccc(/C=N/Nc3n[nH]c(=S)n3/N=C/c3ccc(-c4cn5ccsc5[n+]4C)cc3)cc2)cn2ccsc21
inactive: dose: 1.87 mg/kg/injection, schedule: Q01DX005 (ip), vehicle: saline with Tween-80 101 % of control
